According to PubChem BioAssay AID330 (DTP/NCI, 2004):
“And” between values parts separate entries of the source, which are not always exact repeats. Equal values may be shown once. Toxic doses and inconclusive results are not listed.

System: P388 leukemia ip, CD2F1 mice, survival T/C
Test: NCI In Vivo Anticancer Drug Screen. Data for tumor model P388 Leukemia (intraperitoneal) in CD2F1 (CDF1) mice
Details: endpoint: median survival time, higher = longer survival
Method in brief: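 Mice carrying the transplanted tumor received test compound or vehicle. Survival was recorded in each group, and the value is the treated-group measurement divided by that of the vehicle-treated control group.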

[1] = dose: 50.0 mg/kg/injection, schedule: Q04DX003 (ip), vehicle: saline
[2] = dose: 50.0 mg/kg/injection, schedule: Q01DX009 (ip), vehicle: saline with Tween-80
[3] = dose: 100.0 mg/kg/injection, schedule: Q01DX009 (ip), vehicle: saline with Tween-80
[4] = dose: 200.0 mg/kg/injection, schedule: Q01DX009 (ip), vehicle: saline with Tween-80
[5] = dose: 400.0 mg/kg/injection, schedule: Q01DX009 (ip), vehicle: saline with Tween-80

SMILES: c1c[n+](CC2CO2)ccc1-c1cc[n+](CC2CO2)cc1 (configuration not stated)
- T/C (dose: 25.0 mg/kg/injection, schedule: Q01DX009 (ip), vehicle: Klucel (hydroxypropylcellulose) (HPC)): 120 % of control
- T/C (dose: 40.0 mg/kg/injection, schedule: Q01DX009 (ip), vehicle: Klucel (hydroxypropylcellulose) (HPC)): 162 % of control
- T/C (dose: 50.0 mg/kg/injection, schedule: Q01DX009 (ip), vehicle: Klucel (hydroxypropylcellulose) (HPC)): 163 % of control
- T/C (dose: 80.0 mg/kg/injection, schedule: Q01DX009 (ip), vehicle: Klucel (hydroxypropylcellulose) (HPC)): 159 % of control
- T/C (dose: 100.0 mg/kg/injection, schedule: Q01DX009 (ip), vehicle: Klucel (hydroxypropylcellulose) (HPC)): 161 % of control

SMILES: CN(C)C1=CC(N(C)C)=NC12C(=N)N(C)C(=O)N(C)C2=O (configuration not stated)
- T/C (dose: 50.0 mg/kg/injection, schedule: Q01DX005 (ip), vehicle: water): 104 % of control
- T/C (dose: 100.0 mg/kg/injection, schedule: Q01DX005 (ip), vehicle: water): 104 % of control
- T/C (dose: 200.0 mg/kg/injection, schedule: Q01DX005 (ip), vehicle: water): 108 % of control

SMILES: CN1CC[N+](C)(Cc2ccc(C[N+]3(C)CC[N+](C)(Cc4ccc(CCl)cc4)CC3)cc2)CC1 (configuration not stated)
- T/C (dose: 12.5 mg/kg/injection, schedule: Q04DX003 (ip), vehicle: saline): 112 % of control
- T/C (dose: 25.0 mg/kg/injection, schedule: Q04DX003 (ip), vehicle: saline): 102 % of control
- T/C [1]: 119 % of control

SMILES: CCCCCCN=C(N)N/N=C(\C)c1ccc2c(c1)Cc1ccccc1-2
- T/C (dose: 12.5 mg/kg/injection, schedule: Q04DX002 (ip), vehicle: saline with Tween-80): 107 % of control
- T/C (dose: 25.0 mg/kg/injection, schedule: Q04DX002 (ip), vehicle: saline with Tween-80): 100 % of control
- T/C (dose: 50.0 mg/kg/injection, schedule: Q04DX002 (ip), vehicle: saline with Tween-80): 92 % of control
- T/C (dose: 100.0 mg/kg/injection, schedule: Q04DX002 (ip), vehicle: saline with Tween-80): 116 % of control

SMILES: CCCCC(SC(CC)(C(N)=O)c1ccccc1)C(=O)O (configuration not stated)
- T/C [2]: 108 % of control
- T/C [3]: 105 % of control
- T/C [4]: 106 % of control
- T/C [5]: 97 % of control

SMILES: COC(=O)Nc1nc2ccc(C3(c4ccc(F)cc4)OCCO3)cc2[nH]1
- T/C (dose: 25.0 mg/kg/injection, schedule: Q01DX009 (oral), vehicle: saline): 103 % of control
- T/C (dose: 50.0 mg/kg/injection, schedule: Q01DX009 (oral), vehicle: saline): 119 % of control
- T/C [1]: 168 % of control
- T/C (dose: 60.0 mg/kg/injection, schedule: Q04DX003 (ip), vehicle: saline): 155 % of control and 192 % of control
- T/C (dose: 70.0 mg/kg/injection, schedule: Q04DX003 (ip), vehicle: saline): 208 % of control

SMILES: CC1CC(C)(C)OB(OCCc2ccc(Cl)cc2Cl)O1 (configuration not stated)
- T/C (dose: 50.0 mg/kg/injection, schedule: Q01DX009 (ip), vehicle: saline): 99 % of control
- T/C (dose: 100.0 mg/kg/injection, schedule: Q01DX009 (ip), vehicle: saline): 102 % of control
- T/C (dose: 200.0 mg/kg/injection, schedule: Q01DX009 (ip), vehicle: saline): 100 % of control

SMILES: N=C(N)Cl
- T/C (dose: 15.0 mg/kg/injection, schedule: Q01DX005 (ip), vehicle: saline): 100 % of control
- T/C (dose: 30.0 mg/kg/injection, schedule: Q01DX005 (ip), vehicle: saline): 94 % of control
- T/C (dose: 60.0 mg/kg/injection, schedule: Q01DX005 (ip), vehicle: saline): 88 % of control

SMILES: O=C(OC1(c2nccc3ccccc23)CCCN(Cc2ccccc2)C1)c1ccccc1 (configuration not stated)
- T/C [2]: 106 % of control
- T/C [3]: 109 % of control
- T/C [4]: 104 % of control

SMILES: c1ccc2c(NCCCCCCNc3c4ccccc4nc4ccccc34)c3ccccc3nc2c1
- T/C (dose: 0.62 mg/kg/injection, schedule: Q## X009 (ip), vehicle: lactic acid): 124 % of control
- T/C (dose: 1.25 mg/kg/injection, schedule: Q01DX009 (ip), vehicle: Klucel (hydroxypropylcellulose) (HPC)): 119 % of control
- T/C (dose: 1.25 mg/kg/injection, schedule: Q01DX009 (ip), vehicle: water): 121 % of control
- T/C (dose: 1.25 mg/kg/injection, schedule: Q01DX009 (oral), vehicle: Klucel (hydroxypropylcellulose) (HPC)): 99 % of control
- T/C (dose: 2.16 mg/kg/injection, schedule: Q01DX009 (ip), vehicle: Klucel (hydroxypropylcellulose) (HPC)): 155 % of control
- T/C (dose: 2.16 mg/kg/injection, schedule: Q01DX009 (ip), vehicle: lactic acid): 156 % of control
- T/C (dose: 2.5 mg/kg/injection, schedule: Q01DX009 (oral), vehicle: Klucel (hydroxypropylcellulose) (HPC)): 106 % of control
- T/C (dose: 2.5 mg/kg/injection, schedule: Q## X009 (ip), vehicle: lactic acid): 152 % of control
- T/C (dose: 2.59 mg/kg/injection, schedule: Q01DX009 (ip), vehicle: lactic acid): 150 % of control
- T/C (dose: 3.6 mg/kg/injection, schedule: Q01DX009 (ip), vehicle: Klucel (hydroxypropylcellulose) (HPC)): 163 % of control
- T/C (dose: 3.6 mg/kg/injection, schedule: Q01DX009 (ip), vehicle: lactic acid): 154 % of control
- T/C (dose: 4.32 mg/kg/injection, schedule: Q01DX009 (ip), vehicle: lactic acid): 150 % of control
- T/C (dose: 5.0 mg/kg/injection, schedule: Q01DX009 (oral), vehicle: Klucel (hydroxypropylcellulose) (HPC)): 93 % of control
- T/C (dose: 5.4 mg/kg/injection, schedule: Q01DX009 (ip), vehicle: other): 156 % of control
- T/C (dose: 6.0 mg/kg/injection, schedule: Q01DX009 (ip), vehicle: Klucel (hydroxypropylcellulose) (HPC)): 180 % of control
- T/C (dose: 7.2 mg/kg/injection, schedule: Q01DX009 (ip), vehicle: Klucel (hydroxypropylcellulose) (HPC)): 157 % of control
- T/C (dose: 7.2 mg/kg/injection, schedule: Q01DX009 (ip), vehicle: lactic acid): 150 % of control
- T/C (dose: 7.2 mg/kg/injection, schedule: Q04DX003 (ip), vehicle: other): 118 % of control
- T/C (dose: 7.78 mg/kg/injection, schedule: Q01DX003 (ip), vehicle: water): 101 % of control
- T/C (dose: 7.78 mg/kg/injection, schedule: Q01DX009 (oral), vehicle: Klucel (hydroxypropylcellulose) (HPC)): 101 % of control
- T/C (dose: 7.78 mg/kg/injection, schedule: Q01DX009 (oral), vehicle: lactic acid): 111 % of control
- T/C (dose: 9.0 mg/kg/injection, schedule: Q01DX009 (ip), vehicle: other): 165 % of control
- T/C (dose: 10.0 mg/kg/injection, schedule: Q01DX009 (ip), vehicle: Klucel (hydroxypropylcellulose) (HPC)): 173 % of control
- T/C (dose: 10.0 mg/kg/injection, schedule: Q01DX009 (ip), vehicle: other): 150 % of control
- T/C (dose: 10.0 mg/kg/injection, schedule: Q01DX009 (ip), vehicle: water): 150 % of control
- T/C (dose: 10.0 mg/kg/injection, schedule: Q01DX009 (oral), vehicle: Klucel (hydroxypropylcellulose) (HPC)): 97 % of control
- T/C (dose: 12.0 mg/kg/injection, schedule: Q01DX009 (ip), vehicle: Klucel (hydroxypropylcellulose) (HPC)): 154 % of control
- T/C (dose: 12.0 mg/kg/injection, schedule: Q04DX003 (ip), vehicle: other): 95 % of control
- T/C (dose: 13.0 mg/kg/injection, schedule: Q01DX003 (ip), vehicle: water): 101 % of control
- T/C (dose: 13.0 mg/kg/injection, schedule: Q01DX009 (oral), vehicle: Klucel (hydroxypropylcellulose) (HPC)): 100 % of control
- T/C (dose: 13.0 mg/kg/injection, schedule: Q01DX009 (oral), vehicle: lactic acid): 104 % of control
- T/C (dose: 15.0 mg/kg/injection, schedule: Q01DX009 (ip), vehicle: other): 168 % of control
- T/C (dose: 20.0 mg/kg/injection, schedule: Q01DX009 (oral), vehicle: Klucel (hydroxypropylcellulose) (HPC)): 108 % of control
- T/C (dose: 21.6 mg/kg/injection, schedule: Q01DX009 (oral), vehicle: Klucel (hydroxypropylcellulose) (HPC)): 100 % of control
- T/C (dose: 21.6 mg/kg/injection, schedule: Q01DX009 (oral), vehicle: lactic acid): 96 % of control
- T/C (dose: 36.0 mg/kg/injection, schedule: Q01DX009 (oral), vehicle: Klucel (hydroxypropylcellulose) (HPC)): 104 % of control
- T/C (dose: 36.0 mg/kg/injection, schedule: Q01DX009 (oral), vehicle: lactic acid): 96 % of control
- T/C (dose: 40.0 mg/kg/injection, schedule: Q01DX009 (oral), vehicle: Klucel (hydroxypropylcellulose) (HPC)): 93 % of control
- T/C (dose: 60.0 mg/kg/injection, schedule: Q01DX009 (oral), vehicle: Klucel (hydroxypropylcellulose) (HPC)): 96 % of control
- T/C (dose: 60.0 mg/kg/injection, schedule: Q01DX009 (oral), vehicle: lactic acid): 93 % of control
- T/C (dose: 80.0 mg/kg/injection, schedule: Q01DX009 (oral), vehicle: Klucel (hydroxypropylcellulose) (HPC)): 97 % of control
- T/C (dose: 100.0 mg/kg/injection, schedule: Q01DX009 (oral), vehicle: Klucel (hydroxypropylcellulose) (HPC)): 95 % of control
- T/C (dose: 100.0 mg/kg/injection, schedule: Q01DX009 (oral), vehicle: lactic acid): 99 % of control
- T/C (dose: 167.0 mg/kg/injection, schedule: Q01DX009 (oral), vehicle: Klucel (hydroxypropylcellulose) (HPC)): 108 % of control
- T/C (dose: 167.0 mg/kg/injection, schedule: Q01DX009 (oral), vehicle: lactic acid): 103 % of control

SMILES: O=C(NC(CSSCC(NC(=O)c1ccccc1)C(=O)O)C(=O)O)c1ccccc1 (configuration not stated)
- T/C [2]: 109 % of control
- T/C [3]: 90 % of control
- T/C [4]: 101 % of control
- T/C [5]: 93 % of control
